Changes are numbered by the printed parent chain. In names and notes the source's numbering stands.
B1: P197S: AHAS protein comprising the P197S mutation (protein, listed as Arabidopsis thaliana)
chain: MAAATTTTTTSSSISFSTKPSPSSSKSPLPISRFSLPFSLNPNKSSSSSRRRGIKSSSPSSISAVLNTTTNVTTTPSPTKPTKPETFISRFAPDQPRKGADILVEALERQGVETVFAYPGGASMEIHQALTRSSSIRNVLPRHEQGGVFAAEGYARSSGKPGICIATSGPGATNLVSGLADALLDSVPLVAITGQVSRRMIGTDAFQETPIVEVTRSITKHNYLVMDVEDIPRIIEEAFFLATSGRPGPVLVDVPKDIQQQLAIPNWEQAMRLPGYMSRMPKPPEDSHLEQIVRLISESKKPVLYVGGGCLNSSDELGRFVELTGIPVASTLMGLGSYPCDDELSLHMLGMHGTVYANYAVEHSDLLLAFGVRFDDRVTGKLEAFASRAKIVHIDIDSAEIGKNKTPHVSVCGDVKLALQGMNKVLENRAEELKLDFGVWRNELNVQKQKFPLSFKTFGEAIPPQYAIKVLDELTDGKAIISTGVGQHQMWAAQFYNYKKPRQWLSSGGLGAMGFGLPAAIGASVANPDAIVVDIDGDGSFIMNVQELATIRVENLPVKVLLLNNQHLGMVMQWQDRFYKANRAHTFLGDPAQEDEIFPNMLLFAAACGIPAARVTKKADLREAIQTMLDTPGPYLLDVICPHQEHVLPMIPSGGTFNDVITEGDGRIKY
B2: P197S-W574L (in one protein): AHAS protein comprising both the P197S and W574L mutation in one ALS protein (protein, listed as Arabidopsis thaliana)
chain: B1 chain with W574L
B3: W574L: AHAS protein comprising the W574L mutation (protein, listed as Arabidopsis thaliana)
chain: B1 chain with S197P, W574L

What was measured:
[1] = tested on: oilseed rape homozygous for HETO133 and HETO134; assay: Field test of visible phytotoxicity upon herbicide spraying, HETO133-HETO134; type: in vivo, Brassica napus; settings: g ai/ha: imazamox 40, bispyribac-sodium 50, propoxycarbazone-sodium 70, mesosulfuron-methyl 60, pyroxsulam 12.5 + cloquintocet-mexyl 37.5, each + rapeseed oil methylated 366.5, 0%=no phytotoxic effects, 100%=all plants killed
Text: (§1) Seeds of spring oilseed rape homozygous for HETO132 and HETO134, and seeds of spring oilseed rape homozygous for HETO133 and HETO 134 were sown in a field according to typical practical agricultural methods. Several ALS inhibitor herbicides were applied to the oilseed rape plants by using specific spray equipment for small plot applications. […] The use of all herbicides in the test lead to a clearly better tolerance of the spring oilseed rape lines homozygous for HETO132 and HETO134 as compared to a standard variety not comprising ALS alleles according to the invention.

[2] = target: AHAS protein comprising the W574L mutation (Arabidopsis thaliana, UniProt P17597, W574L); assay: biochemical; settings: for Resistance Factor W574L: AHAS W574L relative to WT
AHAS protein comprising the W574L mutation, sequence (P17597 56-670 W574L): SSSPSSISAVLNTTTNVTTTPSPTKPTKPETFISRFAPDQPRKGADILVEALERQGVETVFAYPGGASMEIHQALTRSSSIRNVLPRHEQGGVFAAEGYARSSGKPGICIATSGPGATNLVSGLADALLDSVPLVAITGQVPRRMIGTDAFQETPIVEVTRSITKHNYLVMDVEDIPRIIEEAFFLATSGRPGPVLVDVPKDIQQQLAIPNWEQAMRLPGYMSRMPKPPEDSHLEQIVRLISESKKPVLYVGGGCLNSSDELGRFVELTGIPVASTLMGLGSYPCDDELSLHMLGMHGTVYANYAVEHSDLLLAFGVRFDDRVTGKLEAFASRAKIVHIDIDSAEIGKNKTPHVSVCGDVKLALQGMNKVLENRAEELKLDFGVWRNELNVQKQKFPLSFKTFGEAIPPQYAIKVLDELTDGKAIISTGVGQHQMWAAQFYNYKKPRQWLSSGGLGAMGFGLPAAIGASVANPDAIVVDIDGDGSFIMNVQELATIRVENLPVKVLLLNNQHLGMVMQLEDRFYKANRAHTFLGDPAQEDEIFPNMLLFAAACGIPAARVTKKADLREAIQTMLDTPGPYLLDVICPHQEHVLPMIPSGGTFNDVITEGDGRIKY
Protocol: (§2) Bacteria are grown at 37° C. in LB-medium containing 100 mg/l carbenicillin and 25 mg/l canamycin, induced with 1 mM isopropyl-β-D-thiogalactopyranoside at an OD600 of 0.6, cultivated for 16 hours at 18° C. and harvested by, e.g., centrifugation. Bacterial pellets are resuspended in 100 mM sodium phosphate buffer pH 7.0 containing 0.1 mM thiamine-pyrophosphate, 1 mM MgCl2, and 1 μM FAD at a concentration of 1 gram wet weight per 25 ml of buffer and disrupted by, e.g., sonification. The crude protein extract obtained after centrifugation is used for ALS activity measurements.
(§3) ALS protein can be extracted from leaves or tissue cultures, such as B. napus or B. juncea leaves, or B. napus or B. juncea tissue cultures as described by Ray (Plant Physiol, 1984, 75:827-831). An ALS assays can be carried out in 96-well microtiter plates using a modification of the procedure described by Ray (1984): The reaction mixture contains 20 mM potassium phosphate buffer pH 7.0, 20 mM sodium pyruvate, 0.45 mM thiamine-pyrophosphate, 0.45 mM MgCl2, 9 μM FAD. ALS enzyme and various concentrations of ALS inhibitors can be mixed in a final volume of 90 μl. Assays can be initiated by adding enzyme and the assays can be terminated after 75 min incubation at 30° C. by the addition of 40 μl 0.5 M H2SO4.

[3] = target: AHAS protein comprising the P197S mutation (Arabidopsis thaliana, UniProt P17597, P197S); assay: biochemical; settings: for Resistance Factor P197S: AHAS P197S relative to WT
AHAS protein comprising the P197S mutation, sequence (P17597 56-670 P197S): as the sequence (P17597 56-670 W574L) above, with P142S, L519W counted along it
Protocol: as §2, §3

AHAS protein WT = AHAS protein WT (Arabidopsis thaliana, UniProt P17597); assay: biochemical
AHAS protein WT, sequence (P17597 56-670): as the sequence (P17597 56-670 W574L) above, with L519W counted along it
Protocol: as §2, §3

[4] = target: mixture of two ALS proteins, one comprising the P197S and the other the W574L mutation (Arabidopsis thaliana, UniProt P17597, P197S/W574L); assay: biochemical; settings: for Resistance Factor P197S & W574L (mixture): calculated mixture of two ALS proteins, relative to WT
mixture of two ALS proteins, one comprising the P197S and the other the W574L mutation, sequence (P17597 56-670 P197S/W574L): as the sequence (P17597 56-670 W574L) above, with P142S counted along it

[5] = tested on: oilseed rape homozygous for HETO132 and HETO134; assay: Field test of visible phytotoxicity upon herbicide spraying, HETO132-HETO134; type: in vivo, Brassica napus; settings: g ai/ha: imazamox 40, bispyribac-sodium 50, propoxycarbazone-sodium 70, mesosulfuron-methyl 60, pyroxsulam 12.5 + cloquintocet-mexyl 37.5, each + rapeseed oil methylated 366.5, 0%=no phytotoxic effects, 100%=all plants killed
Text: as §1

[6] = tested on: wild-type (WT) oilseed rape; assay: Field test of visible phytotoxicity upon herbicide spraying, wild-type; type: in vivo, Brassica napus; settings: g ai/ha: imazamox 40, bispyribac-sodium 50, propoxycarbazone-sodium 70, mesosulfuron-methyl 60, pyroxsulam 12.5 + cloquintocet-mexyl 37.5, each + rapeseed oil methylated 366.5, 0%=no phytotoxic effects, 100%=all plants killed
Text: as §1

[7] = target: AHAS protein comprising both the P197S and W574L mutation in one ALS protein (Arabidopsis thaliana, UniProt P17597, P197S/W574L); type: biochemical; settings: both mutations in one ALS protein; for Resistance Factor P197S-W574L (in one protein): relative to WT
AHAS protein comprising both the P197S and W574L mutation in one ALS protein, sequence (P17597 56-670 P197S/W574L): as the sequence (P17597 56-670 W574L) above, with P142S counted along it
Protocol: as §2, §3

[8] = tested on: Brassica napus hypocotyl derived callus; assay: Selection of hypocotyl derived callus on medium containing Foramsulfuron; type: cell-based
Protocol: Five day old seedlings were used for the preparation of hypocotyl segments 7-10 mm in length. Hypocotyl segments were transferred to 14 cm Petri plates containing 75 ml of M-338 [H76] callus induction medium (25 explants/plate). M-338 [H76] medium is MS salts and vitamins (Murashige and Skoog, 1962), 20 g/l sucrose, 0.5 g/l MES, 0.5 g/l adenine sulphate, 5 mg/l silver nitrate, 0.5 mg/l 2,4-D, 0.2 mg/l kinetin and solidified with 5.5 g/l agarose (pH 5.7). Dishes were sealed and cultured at 24° C. with standard light conditions (16 h/day). After 3 weeks, calli developing at the ends of the explants were transferred to fresh M-338 [H76] plates (25 calli/plate). Calli were subcultured to fresh medium every 3 weeks (larger calli cut into two pieces).
Hypocotyl derived callus (9 weeks old) was used for the selection of herbicide resistant mutants. Small pieces of callus were plated on M-338 [H76] medium containing 25 nM of the ALS inhibitor Foramsulfuron (CAS RN 173159-57-4). […] Dishes were cultured at 24° C. with standard light conditions (16 h/day). After 3 weeks, the calli were divided into 2 pieces each and replated on M-338 [H76] medium containing 50 nM Foramsulfuron. […]

[9] = Kinetic parameters of enzymatic activity of AHAS proteins; type: biochemical; settings: enzymatic activity of the AHAS protein
Protocol: The ALS inhibitor sensitivity and kinetic parameters of AHAS proteins comprising the P197S mutation, the W574L mutation, and both the P197S and W574L mutation in one ALS protein, were determined essentially as described in WO 2013/127766. ALS inhibitor sensitivity of a mixture of two ALS proteins, one of which comprising the P197S and the other comprising the W574L mutations were calculated as described in WO 2013/127766.

| Molecule | Percentage phytotoxicity 9 DAA HETO133-HETO134 [1] | Percentage phytotoxicity 16 DAA HETO133-HETO134 [1] | Percentage phytotoxicity 24 DAA HETO133-HETO134 [1] | IC50 [2] | Resistance Factor W574L [2] | IC50 [3] | Resistance Factor P197S [3] | IC50 (AHAS protein WT) | IC50 [4] | Resistance Factor P197S & W574L (mixture) [4] | Percentage phytotoxicity 9 DAA HETO132-HETO134 [5] | Percentage phytotoxicity 16 DAA HETO132-HETO134 [5] | Percentage phytotoxicity 24 DAA HETO132-HETO134 [5] | Percentage phytotoxicity 9 DAA wild-type [6] | Percentage phytotoxicity 16 DAA wild-type [6] | Percentage phytotoxicity 24 DAA wild-type [6] | pI50 P197S-W574L (in one protein) [7] | Resistance Factor P197S-W574L (in one protein) [7] | Km [9] | Vmax [9] | also measured |
| --- | --- | --- | --- | --- | --- | --- | --- | --- | --- | --- | --- | --- | --- | --- | --- | --- | --- | --- | --- | --- | --- |
| COc1cc(OC)nc(Oc2cccc(Oc3nc(OC)cc(OC)n3)c2C(=O)O)n1 [Bispyribac-sodium, bispyribac-sodium] | 56.7% | 88.3% | 92.7% | 7.94 µM | 447 | 0.0794 µM | 4 | 0.0158 µM | 0.794 µM | 40 | 46.7% | 71.7% | 43.3% | 76.7% | 98.3% | 100% | <4 | >5623 | – | – | – |
| COc1cc(OC)nc(NC(=O)NS(=O)(=O)c2cc(NC=O)ccc2C(=O)N(C)C)n1 [Foramsulfuron, foramsulfuron] | – | – | – | 50.1 µM | 5888 | 0.1 µM | 12 | 0.00794 µM | 2.51 µM | 398 | – | – | – | – | – | – | <4 | >11748 | – | – | effect on callus growth ([8]; 25 nM in M-338 [H76] medium, 9 weeks old hypocotyl derived callus): partially inhibitory to callus growth but not lethal; effect on WT tissues ([8]; 250 nM in M-338 [H76] medium): clearly inhibitory to WT tissues |
| CCCOc1nn(C(=O)[N-]S(=O)(=O)c2ccccc2C(=O)OC)c(=O)n1C.[Na+] [PROPOXYCARBAZONE-SODIUM, propoxycarbazone-sodium] | 53.3% | 82.7% | 76.7% | – | – | – | – | – | – | – | 40% | 36.7% | 11.7% | 76.7% | 97% | 97.7% | – | – | – | – | – |
| COCc1cnc(C2=NC(C)(C(C)C)C(=O)N2)c(C(=O)O)c1 (centres unmarked) [Imazamox, imazamox] | 6.7% | 10% | 0% | > 100 µM | >22 | 5.01 µM | 1 | 3.98 µM | 79.4 µM | 20 | 6.7% | 8.7% | 0% | 73.3% | 98% | 99% | <4 | >22 | – | – | – |
| B1 | – | – | – | – | – | – | – | – | – | – | – | – | – | – | – | – | – | – | 5.5 mM | 50.0 deltaOD550/min mg protein | – |
| B2 | – | – | – | – | – | – | – | – | – | – | – | – | – | – | – | – | – | – | 31.5 mM | 87.7 deltaOD550/min mg protein | – |
| B3 | – | – | – | – | – | – | – | – | – | – | – | – | – | – | – | – | – | – | 7 mM | 54.4 deltaOD550/min mg protein | – |
